One test concerns the target Ion channel NompC (Danio rerio, UniProt Q7T1G6). In words: Fluorescence counterscreen assay for TRPML3 agonists: dose response cell-based high-throughput screening assay to identify agonists of the transient receptor potential channel N1 (TRPN1). [Related pubchem assays: 1526, 1424, 1448 ]. In kind it is functional.
Test [1] is described as follows: Luminescence Cell-Based Dose Retest to Confirm Inhibitors of Cancer Stem Cells. [Related pubchem assays (depositor defined):AID2717, AID2721]. The format is functional. The conditions noted are these: Homo sapiens.
The target in the next test is T1, Mucolipin-3 (Homo sapiens, UniProt Q8TDD5).
T1 sequence (Q8TDD5 whole entry): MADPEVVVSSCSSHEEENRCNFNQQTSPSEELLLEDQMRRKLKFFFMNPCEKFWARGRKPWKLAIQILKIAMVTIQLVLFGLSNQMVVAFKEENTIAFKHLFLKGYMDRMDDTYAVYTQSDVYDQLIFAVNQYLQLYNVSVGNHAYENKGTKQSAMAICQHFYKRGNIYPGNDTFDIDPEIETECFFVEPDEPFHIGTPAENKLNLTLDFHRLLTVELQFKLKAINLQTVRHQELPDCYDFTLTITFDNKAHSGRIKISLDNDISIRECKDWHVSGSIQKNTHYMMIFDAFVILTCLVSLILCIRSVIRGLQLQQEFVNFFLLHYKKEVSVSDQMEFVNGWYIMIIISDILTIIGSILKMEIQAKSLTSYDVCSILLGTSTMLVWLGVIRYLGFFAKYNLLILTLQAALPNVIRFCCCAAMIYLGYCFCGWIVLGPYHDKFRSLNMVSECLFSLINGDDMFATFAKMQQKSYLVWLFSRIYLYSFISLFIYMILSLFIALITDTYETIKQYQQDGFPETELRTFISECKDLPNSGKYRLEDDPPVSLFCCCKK
In words: Dose response cell-based high-throughput screening assay for agonists of the transient receptor potential channel ML3 (TRPML3). [Related pubchem assays: 1526, 1424, 1448 ]. The format is functional.

Test [2] concerns the target Disintegrin and metalloproteinase domain-containing protein 17 (Homo sapiens, UniProt P78536). In words: ADAM17 protease inhibitors, dose response, counter-screen for ADAM10 exosite inhibitor project, biochemical, quenched FRET substrate (AID 743253). In general terms: Counterscreens check selectivity or assay interference.
The next test deals with T2, Exodeoxyribonuclease V (Escherichia coli (strain K12), UniProt P04993+P07648+P08394).
T2 sequence (P04993 whole entry): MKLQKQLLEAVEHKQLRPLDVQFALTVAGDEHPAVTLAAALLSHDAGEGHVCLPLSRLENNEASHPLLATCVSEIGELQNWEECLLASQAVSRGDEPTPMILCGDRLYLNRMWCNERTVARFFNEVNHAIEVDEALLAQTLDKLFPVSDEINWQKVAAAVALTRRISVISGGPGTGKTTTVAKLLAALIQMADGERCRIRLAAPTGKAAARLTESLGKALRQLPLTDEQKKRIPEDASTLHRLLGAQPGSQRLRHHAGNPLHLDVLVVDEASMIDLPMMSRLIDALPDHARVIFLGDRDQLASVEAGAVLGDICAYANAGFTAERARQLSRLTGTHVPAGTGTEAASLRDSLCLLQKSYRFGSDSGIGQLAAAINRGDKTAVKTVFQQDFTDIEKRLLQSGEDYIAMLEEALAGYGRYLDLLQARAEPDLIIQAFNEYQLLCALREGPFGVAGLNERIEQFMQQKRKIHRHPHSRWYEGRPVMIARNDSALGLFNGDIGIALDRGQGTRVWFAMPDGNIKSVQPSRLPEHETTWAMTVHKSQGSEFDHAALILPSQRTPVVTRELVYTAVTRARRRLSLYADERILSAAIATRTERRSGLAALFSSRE
T2 sequence (P07648 whole entry): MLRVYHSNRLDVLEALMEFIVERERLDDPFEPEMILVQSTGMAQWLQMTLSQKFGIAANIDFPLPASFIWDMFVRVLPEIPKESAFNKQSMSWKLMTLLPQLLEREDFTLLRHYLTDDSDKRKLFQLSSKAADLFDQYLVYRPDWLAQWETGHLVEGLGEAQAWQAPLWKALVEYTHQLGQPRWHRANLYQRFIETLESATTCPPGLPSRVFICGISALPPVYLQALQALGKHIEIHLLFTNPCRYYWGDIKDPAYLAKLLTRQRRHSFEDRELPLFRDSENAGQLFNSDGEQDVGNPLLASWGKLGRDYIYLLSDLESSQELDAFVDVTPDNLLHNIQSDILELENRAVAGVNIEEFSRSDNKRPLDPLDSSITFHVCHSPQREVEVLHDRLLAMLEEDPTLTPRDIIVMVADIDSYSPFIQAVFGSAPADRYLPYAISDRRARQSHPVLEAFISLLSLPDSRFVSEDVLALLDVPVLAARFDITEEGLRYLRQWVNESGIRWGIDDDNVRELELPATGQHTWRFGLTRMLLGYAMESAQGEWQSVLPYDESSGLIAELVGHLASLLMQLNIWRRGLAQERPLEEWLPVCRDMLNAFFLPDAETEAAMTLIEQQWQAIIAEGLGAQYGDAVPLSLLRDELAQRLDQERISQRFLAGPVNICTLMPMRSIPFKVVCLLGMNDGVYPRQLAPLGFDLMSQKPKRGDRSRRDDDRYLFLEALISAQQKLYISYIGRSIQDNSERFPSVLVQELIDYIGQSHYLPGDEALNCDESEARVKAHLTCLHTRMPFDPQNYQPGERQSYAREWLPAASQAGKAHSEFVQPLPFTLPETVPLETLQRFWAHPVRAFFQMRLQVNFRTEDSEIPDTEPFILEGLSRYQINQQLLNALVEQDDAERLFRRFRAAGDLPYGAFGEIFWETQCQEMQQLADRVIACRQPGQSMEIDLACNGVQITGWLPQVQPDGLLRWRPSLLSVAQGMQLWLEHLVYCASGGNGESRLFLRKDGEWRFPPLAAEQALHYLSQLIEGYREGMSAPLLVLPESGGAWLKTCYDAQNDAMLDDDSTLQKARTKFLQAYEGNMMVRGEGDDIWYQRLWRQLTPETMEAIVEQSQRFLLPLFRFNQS
T2 sequence (P08394 whole entry): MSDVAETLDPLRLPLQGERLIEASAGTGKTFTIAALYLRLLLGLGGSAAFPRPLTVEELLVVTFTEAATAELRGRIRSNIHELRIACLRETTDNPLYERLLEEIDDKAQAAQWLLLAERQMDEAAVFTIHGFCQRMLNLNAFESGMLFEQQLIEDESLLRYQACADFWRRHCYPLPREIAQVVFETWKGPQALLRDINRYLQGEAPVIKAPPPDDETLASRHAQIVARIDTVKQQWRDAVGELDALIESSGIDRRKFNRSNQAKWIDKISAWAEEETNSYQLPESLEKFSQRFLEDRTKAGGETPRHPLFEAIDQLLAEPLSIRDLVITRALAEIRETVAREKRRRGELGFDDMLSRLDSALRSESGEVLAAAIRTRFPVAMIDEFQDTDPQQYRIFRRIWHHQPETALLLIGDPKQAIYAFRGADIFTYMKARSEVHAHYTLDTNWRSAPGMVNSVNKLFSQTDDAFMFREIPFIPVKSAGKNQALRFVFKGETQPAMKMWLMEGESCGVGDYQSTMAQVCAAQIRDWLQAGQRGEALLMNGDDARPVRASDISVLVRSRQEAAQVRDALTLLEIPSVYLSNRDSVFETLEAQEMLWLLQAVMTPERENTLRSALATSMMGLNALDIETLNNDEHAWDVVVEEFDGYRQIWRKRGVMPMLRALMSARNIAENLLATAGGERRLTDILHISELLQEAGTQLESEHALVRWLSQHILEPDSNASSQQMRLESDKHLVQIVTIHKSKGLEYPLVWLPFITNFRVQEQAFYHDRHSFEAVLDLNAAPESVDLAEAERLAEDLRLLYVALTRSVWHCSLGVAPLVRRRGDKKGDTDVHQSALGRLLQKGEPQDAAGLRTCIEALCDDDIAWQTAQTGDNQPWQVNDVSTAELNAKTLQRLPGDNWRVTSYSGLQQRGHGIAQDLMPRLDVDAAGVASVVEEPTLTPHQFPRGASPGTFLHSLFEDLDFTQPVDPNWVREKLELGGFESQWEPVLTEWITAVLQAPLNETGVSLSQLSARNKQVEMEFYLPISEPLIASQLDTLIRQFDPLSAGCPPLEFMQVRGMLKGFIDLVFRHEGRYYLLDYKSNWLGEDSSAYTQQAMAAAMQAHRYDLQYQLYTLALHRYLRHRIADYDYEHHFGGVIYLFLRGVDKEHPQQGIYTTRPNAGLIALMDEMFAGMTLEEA
The experiment in a line: E. coli RecBCD inhibitors, dose response, counter-screen for AddAB inhibitor project, absorbance, V66 E. coli, mutant T4 phage (AID 492957). In kind it is functional, cell-based, Escherichia coli str. K-12 substr. MG1655.

The nature of test [3]: Counterscreen for AddAB inhibitors: absorbance-based bacterial cell-based high throughput dose response assay for inhibitors of bacterial viability. [Related pubchem assays (depositor defined):AID435030, AID449728, AID449731, AID488942, AID488955, AID488956]. The format is functional.
Test [4] is described as follows: inhibitors of intracellular T. cruzi replication, confirmation, NIH3T3 host cells, beta-gal luminescence (AID 2044).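 Also: intracellular parasites grown in NIH/3T3 mouse fibroblasts as host cells; luminescent beta-galactosidase reporter signal from transgenic T. cruzi replicating inside host cells; inhibitors lower the luminescence signal.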 In kind it is functional, cell-based.
Test [5] is described as follows: cytotoxicity toward NIH3T3 fibroblasts, dose response, counter-screen, cell-based, ATP luminescence, mouse fibroblasts (AID 2010).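 Also: cells exposed to compound for about 90 hours before reading.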 In kind it is functional.
Test [6] in a line: cells. In kind it is functional, cell-based. The conditions noted are these: HEK-CNG.
Another test deals with Galanin receptor type 3 (Homo sapiens, UniProt O60755). The experiment in a line: Fluorescence-based cell-based primary high throughput dose response assay to identify antagonists of the Galanin Receptor 3 (GalR3). In kind it is functional.
Another test concerns the target Nonstructural protein 1 (Influenza A virus, UniProt Q194T2). In kind it is functional, Influenza A virus (A/California/07/2009(H1N1)).
A short description of test [7]: cells.
Test [8] can be described thus: IGROV1 ovarian cancer cell cytotoxicity, dose response, PAX8 inhibitor project, plate reader, dry powder samples (AID 743043). The format is functional, cell-based. Conditions: IGROV-1.
A short description of test [9]: A2780 ovarian cancer cell cytotoxicity, dose response, cytotoxicity control, plate reader, dry powder samples (AID 743046). The format is functional, cell-based.
Test [10] is described as follows: cytotoxicity in OVCAR8 ovarian cancer cells, dose response, PAX8 project, cell-based, plate reader, dry powder samples (AID 743197). In kind it is functional. Conditions: OVCAR-8.
The target of the next test is Paired box protein Pax-8 (Homo sapiens, UniProt Q06710). In words: inhibitors of PAX8-driven TPO luciferase reporter, dose response, RMG-I cells, cherry-pick (AID 687027).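 Also: luciferase reporter driven by Pax8 target thyroperoxidase promoter measured by SteadyGlo luminescence.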 The format is functional, cell-based. (In general: Reporter assays use an easily measured gene product as a stand-in for the process of interest.)
A short description of test [11]: NIH:OVCAR-3 ovarian cancer cell cytotoxicity, dose response, PAX8 inhibitor project, plate reader, dry powder samples (AID 743044). In kind it is functional, cell-based.
Test [12] is described as follows: T. cruzi intracellular amastigote growth inhibition, dose response, imaging, CA-I/72 strain, bovine embryo skeletal muscle, dry powder (AID 651885). The format is functional, cell-based.
Test [13] addresses Potassium channel subfamily K member 9 (Homo sapiens, UniProt Q9NPC2). In words: TASK3 (KCNK9) channel inhibitors, thallium flux, SAR follow-up, selectivity assay for TASK1 inhibitor project, cell-based, FluxOR thallium flux, concentration-response (AID 652211).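 Also: potency is for inhibitors of the channel.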 The format is functional.
Test [14] deals with Potassium channel subfamily K member 3 (Homo sapiens, UniProt O14649). The experiment in a line: TASK1 (KCNK3) potassium channel inhibitors, SAR follow-up, CHO cells, FluxOR thallium flux (AID 652212). In kind it is functional.
Test [15] has as its target Potassium channel subfamily K member 3 (Rattus norvegicus, UniProt O54912). In words: SAR analysis for the identification of selective inhibitors of the two-pore domain potassium channel TASK1(KCNK3):Automated Electrophysiology. The format is functional.

Calls of active or inactive are those of the source.

In general, EC50 refers to the concentration giving half of the maximal effect. Usually AC50 stands for the concentration at which the activity in the assay is half-maximal. In general, IC50 refers to the midpoint of a concentration-inhibition curve.

Sequence of Potassium channel subfamily K member 9 (Q9NPC2 whole entry): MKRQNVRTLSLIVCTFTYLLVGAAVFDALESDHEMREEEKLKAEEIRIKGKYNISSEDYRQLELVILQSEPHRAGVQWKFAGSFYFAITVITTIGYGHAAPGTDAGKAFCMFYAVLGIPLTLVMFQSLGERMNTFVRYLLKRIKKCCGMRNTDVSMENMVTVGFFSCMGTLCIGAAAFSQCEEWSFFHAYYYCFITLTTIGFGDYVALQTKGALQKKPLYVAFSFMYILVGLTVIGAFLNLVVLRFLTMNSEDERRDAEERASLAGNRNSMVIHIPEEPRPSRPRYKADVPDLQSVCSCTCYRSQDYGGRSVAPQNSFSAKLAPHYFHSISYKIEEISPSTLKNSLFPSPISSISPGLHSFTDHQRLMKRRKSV
Sequence of Ion channel NompC (Q7T1G6 whole entry): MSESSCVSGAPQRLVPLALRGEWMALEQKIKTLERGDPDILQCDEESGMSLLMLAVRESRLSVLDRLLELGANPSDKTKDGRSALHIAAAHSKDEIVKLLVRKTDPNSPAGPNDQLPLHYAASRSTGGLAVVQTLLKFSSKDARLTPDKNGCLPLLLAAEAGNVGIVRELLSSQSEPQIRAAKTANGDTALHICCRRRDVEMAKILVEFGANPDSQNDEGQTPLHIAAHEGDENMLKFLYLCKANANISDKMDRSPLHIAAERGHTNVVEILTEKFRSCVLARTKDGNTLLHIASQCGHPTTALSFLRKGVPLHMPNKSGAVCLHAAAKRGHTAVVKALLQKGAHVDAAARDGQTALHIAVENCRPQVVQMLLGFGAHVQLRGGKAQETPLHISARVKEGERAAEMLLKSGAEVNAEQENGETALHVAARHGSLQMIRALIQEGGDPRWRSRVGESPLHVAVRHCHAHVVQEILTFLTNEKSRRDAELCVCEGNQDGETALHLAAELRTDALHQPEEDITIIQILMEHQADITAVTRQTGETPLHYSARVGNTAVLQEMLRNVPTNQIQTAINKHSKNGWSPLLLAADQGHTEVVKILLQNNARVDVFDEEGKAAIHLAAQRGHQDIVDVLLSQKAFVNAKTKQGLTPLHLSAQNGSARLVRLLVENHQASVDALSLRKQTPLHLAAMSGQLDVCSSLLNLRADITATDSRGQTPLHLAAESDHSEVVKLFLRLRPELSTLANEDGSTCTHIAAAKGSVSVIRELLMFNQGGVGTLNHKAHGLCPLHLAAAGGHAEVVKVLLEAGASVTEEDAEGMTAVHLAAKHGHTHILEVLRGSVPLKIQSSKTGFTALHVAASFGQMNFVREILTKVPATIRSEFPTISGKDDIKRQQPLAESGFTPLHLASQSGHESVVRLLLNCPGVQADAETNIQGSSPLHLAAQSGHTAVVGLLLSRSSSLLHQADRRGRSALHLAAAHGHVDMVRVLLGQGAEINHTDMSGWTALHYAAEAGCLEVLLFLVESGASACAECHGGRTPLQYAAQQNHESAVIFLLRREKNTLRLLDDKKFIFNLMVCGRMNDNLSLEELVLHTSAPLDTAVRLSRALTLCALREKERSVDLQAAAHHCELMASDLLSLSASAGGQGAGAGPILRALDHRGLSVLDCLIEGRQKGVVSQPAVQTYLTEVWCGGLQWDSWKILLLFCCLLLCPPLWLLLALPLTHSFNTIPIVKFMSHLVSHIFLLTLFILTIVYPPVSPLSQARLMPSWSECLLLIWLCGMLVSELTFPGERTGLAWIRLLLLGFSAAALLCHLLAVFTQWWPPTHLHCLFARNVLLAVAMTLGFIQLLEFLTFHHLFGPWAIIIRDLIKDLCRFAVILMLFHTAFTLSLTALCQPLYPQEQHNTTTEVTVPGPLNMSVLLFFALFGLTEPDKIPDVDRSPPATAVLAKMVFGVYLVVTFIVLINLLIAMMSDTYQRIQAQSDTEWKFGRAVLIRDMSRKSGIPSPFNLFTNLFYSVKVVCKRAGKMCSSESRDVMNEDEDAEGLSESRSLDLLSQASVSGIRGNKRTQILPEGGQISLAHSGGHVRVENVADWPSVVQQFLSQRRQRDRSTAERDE
Sequence of Disintegrin and metalloproteinase domain-containing protein 17 (P78536 whole entry, the tested form may be a part): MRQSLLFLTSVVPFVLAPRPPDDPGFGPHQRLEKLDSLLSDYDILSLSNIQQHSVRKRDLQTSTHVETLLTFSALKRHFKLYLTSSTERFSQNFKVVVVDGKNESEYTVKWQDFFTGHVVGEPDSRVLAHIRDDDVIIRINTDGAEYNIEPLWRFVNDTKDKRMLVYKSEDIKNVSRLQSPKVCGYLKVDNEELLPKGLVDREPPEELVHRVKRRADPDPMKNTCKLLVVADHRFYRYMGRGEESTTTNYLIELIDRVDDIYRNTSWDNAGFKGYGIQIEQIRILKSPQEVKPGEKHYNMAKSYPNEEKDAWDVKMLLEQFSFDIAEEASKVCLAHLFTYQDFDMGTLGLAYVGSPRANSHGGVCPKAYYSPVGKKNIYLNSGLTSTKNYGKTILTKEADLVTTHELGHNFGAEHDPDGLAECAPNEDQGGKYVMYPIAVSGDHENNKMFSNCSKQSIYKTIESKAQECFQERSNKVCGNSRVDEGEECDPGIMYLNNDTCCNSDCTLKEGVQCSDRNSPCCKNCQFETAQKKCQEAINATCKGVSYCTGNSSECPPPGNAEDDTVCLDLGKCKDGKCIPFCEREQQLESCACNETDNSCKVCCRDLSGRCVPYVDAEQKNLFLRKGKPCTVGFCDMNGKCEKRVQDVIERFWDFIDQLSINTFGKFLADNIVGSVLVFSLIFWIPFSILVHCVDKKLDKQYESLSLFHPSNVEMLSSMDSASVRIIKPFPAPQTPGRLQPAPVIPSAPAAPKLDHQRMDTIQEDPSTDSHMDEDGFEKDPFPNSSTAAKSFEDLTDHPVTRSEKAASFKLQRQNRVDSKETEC
Sequence of Paired box protein Pax-8 (Q06710 whole entry): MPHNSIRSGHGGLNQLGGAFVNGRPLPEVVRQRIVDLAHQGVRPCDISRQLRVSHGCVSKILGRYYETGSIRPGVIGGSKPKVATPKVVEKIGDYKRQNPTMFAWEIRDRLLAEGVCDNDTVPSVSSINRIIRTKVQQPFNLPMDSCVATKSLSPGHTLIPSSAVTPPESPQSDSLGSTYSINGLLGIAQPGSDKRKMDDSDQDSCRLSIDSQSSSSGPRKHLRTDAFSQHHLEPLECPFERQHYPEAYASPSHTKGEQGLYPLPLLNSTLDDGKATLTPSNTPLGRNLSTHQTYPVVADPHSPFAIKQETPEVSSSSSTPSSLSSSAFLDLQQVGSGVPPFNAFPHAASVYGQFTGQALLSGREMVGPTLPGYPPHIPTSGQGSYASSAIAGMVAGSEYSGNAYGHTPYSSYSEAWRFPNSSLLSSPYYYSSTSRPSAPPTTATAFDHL
Sequence of Galanin receptor type 3 (O60755 whole entry): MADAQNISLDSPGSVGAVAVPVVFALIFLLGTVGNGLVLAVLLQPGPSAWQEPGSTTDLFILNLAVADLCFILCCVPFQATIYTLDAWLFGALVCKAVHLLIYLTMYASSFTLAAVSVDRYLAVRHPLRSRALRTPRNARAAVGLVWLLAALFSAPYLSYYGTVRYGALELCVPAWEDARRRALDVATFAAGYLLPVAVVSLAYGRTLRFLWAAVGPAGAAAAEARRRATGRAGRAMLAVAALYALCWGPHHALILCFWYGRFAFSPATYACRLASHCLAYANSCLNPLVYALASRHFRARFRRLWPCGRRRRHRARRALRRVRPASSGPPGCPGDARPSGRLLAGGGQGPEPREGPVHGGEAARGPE
Sequence of Potassium channel subfamily K member 3 (Rattus norvegicus, UniProt O54912) (O54912 whole entry, the tested form may be a part): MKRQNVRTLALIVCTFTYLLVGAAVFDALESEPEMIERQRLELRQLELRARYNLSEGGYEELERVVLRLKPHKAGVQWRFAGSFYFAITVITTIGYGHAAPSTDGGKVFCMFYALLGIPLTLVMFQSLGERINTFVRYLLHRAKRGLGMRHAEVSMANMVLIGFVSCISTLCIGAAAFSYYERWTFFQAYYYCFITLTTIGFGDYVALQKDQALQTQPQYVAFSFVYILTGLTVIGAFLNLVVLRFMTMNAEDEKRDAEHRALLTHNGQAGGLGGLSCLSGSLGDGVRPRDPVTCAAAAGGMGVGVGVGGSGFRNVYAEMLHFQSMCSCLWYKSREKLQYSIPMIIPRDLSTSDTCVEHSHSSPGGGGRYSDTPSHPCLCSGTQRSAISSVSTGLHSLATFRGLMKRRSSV
Sequence of Potassium channel subfamily K member 3 (Homo sapiens, UniProt O14649) (O14649 whole entry, the tested form may be a part): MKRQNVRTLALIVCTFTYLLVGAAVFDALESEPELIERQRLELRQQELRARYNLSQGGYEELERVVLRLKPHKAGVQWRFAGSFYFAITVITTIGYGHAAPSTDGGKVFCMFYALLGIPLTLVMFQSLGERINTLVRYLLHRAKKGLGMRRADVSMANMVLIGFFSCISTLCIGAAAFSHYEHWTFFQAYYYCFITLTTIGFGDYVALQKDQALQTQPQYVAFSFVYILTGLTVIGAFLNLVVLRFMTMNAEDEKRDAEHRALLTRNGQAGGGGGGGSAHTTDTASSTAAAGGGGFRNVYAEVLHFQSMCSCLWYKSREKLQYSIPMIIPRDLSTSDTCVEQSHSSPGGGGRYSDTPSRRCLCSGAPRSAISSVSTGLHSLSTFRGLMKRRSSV
Sequence of Nonstructural protein 1 (Q194T2 whole entry): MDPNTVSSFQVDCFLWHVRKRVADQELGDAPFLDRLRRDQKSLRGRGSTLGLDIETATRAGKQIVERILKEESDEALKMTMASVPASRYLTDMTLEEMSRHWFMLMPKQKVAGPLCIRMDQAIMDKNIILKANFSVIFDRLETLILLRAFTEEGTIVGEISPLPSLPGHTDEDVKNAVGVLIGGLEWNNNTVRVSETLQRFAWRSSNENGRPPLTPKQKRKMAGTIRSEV

Regarding `CCOC(=O)c1c(CSc2ccc(C)cc2)oc2ccc(O)cc12`, the EC50 at Ion channel NompC is > 29.9 µM (not active); on Mucolipin-3, 4.33 µM (active). In test [1], the AC50 was 3.94 µM (active). The IC50 in [2] was > 69.6 µM (inactive).

As for `C=CCN1/C(=C/c2ccc3cc(C)ccc3[n+]2CC)C=Cc2ccccc21`, the IC50 at Exodeoxyribonuclease V is > 39.5 µM (inactive); in [3], 35.8 µM (inactive); on Galanin receptor type 3, > 0.123 µM (active); at Nonstructural protein 1, 11.7 µM (active). Further, the EC50 was < 0.1 µM (active) in [4], 6.53 µM (active) in [5], > 29.9 µM (inactive) in the test “cells [6]” and 0.054 µM (active) in the test “cells [7]”.

Take `C[C@@H]1CN([C@@H](C)CO)C(=O)c2cc(NS(=O)(=O)c3ccc(F)cc3)ccc2O[C@@H](C)CCCCO[C@@H]1CN(C)Cc1ccc(C(F)(F)F)cc1`: the AC50 in test [8] is 57.6 µM (active); in test [9] it was 62.8 µM (active); in test [10], 55.4 µM (active); on Paired box protein Pax-8, 8.92 µM (active); in [11], 40.5 µM (active).

For the compound `CC(C)N1C[C@H](C)[C@@H](CN(C)C(=O)OC(C)(C)C)Oc2c(C#N)cccc2C1=O`, the IC50 in test [12] was > 20 µM (inactive).

On to `COc1ccccc1NC(=O)c1cccc(NC(=O)c2ccccc2C(F)(F)F)c1`, for which the results for the IC50 in test [13], in test [14] and in [15] were 1.32 µM (active), 0.042 µM (active) and 0.149 µM (active), respectively.

The record behind these values is ChEMBL document CHEMBL1201862, “PubChem BioAssay data set” (2004).
